Series [1] has as its system Tar13. In words: Tar13 in vitro assay with substrate analogues. Format: biochemical, Saccharomonospora sp. CNQ-490. How it is done: Tar13. Upon testing different reaction compositions (buffers, concentration of ascorbic acids and hemin, pH), the following conditions were found as optimal:
Buffer: up to 50 μL (50 mM Tris, 500 mM NaCl 10% glycerol, pH 8.0)
(§1) In a separate Eppendorf tube premix:
Add substrate solution to the enzyme mixture to start reaction
When Tar13 was directly added to the enzyme reaction, immediate protein precipitation occurred. The same was observed if the enzyme was not pre-mixed with hemin and ascorbic acid. Full substrate conversion was achieved after overnight incubation at 30° C. in 1.5 mL Eppendorf tube with shaking. The reactions were quenched by addition of equal volume of HPLC grade methanol.

For series [2], the system named is Tar14. Nature of the series: Tar14 in vitro halogenation assay with substrate analogues. The class given is biochemical, Saccharomonospora sp. CNQ-490. How it is done:
Tar14. Tar14 reaction mixture of total volume 100 μL in 1.5 mL Eppendorf tube was composed of the following components:
Buffer (10 mM Tris, 10% glycerol, pH 7.6): up to 100 μL

For series [3], the system named is Tar16. Nature of the series: Coupled Tar13/Tar16 assay (Tar16 substrate generated in situ by Tar13). Format: biochemical, Saccharomonospora sp. CNQ-490. To be noted: substrates generated in situ by Tar13; Tar16 10 μM; overnight at 30° C. Here is the method: Coupled Tar13 Tar]6. The reaction mixture of total volume 100 μL in 1.5 mL Eppendorf tube was composed of the following components:
Buffer: up to 50 μL (50 mM Tris, 500 mM NaCl 10% glycerol, pH 8.0
Substrate (for Tar13 enzyme): 0.25 μM
as §1
Buffer: up to […] (50 mM Tris, 500 mM NaCl 10% glycerol, pH 8.0)
Add substrate solution to the enzyme mixture to start reaction.
No difference in conversion was observed when Tar16 was added into the assay mixture either together with Tar13, or after 2 h of incubation at 30° C., or after overnight incubation at 30° C., followed by another 4 h of incubation after addition of Tar16. Therefore, for convenience, all components were mixed at the same time point, the reactions were incubated at 30° C. overnight, after which the assays were quenched by addition of equal volume of HPLC grade methanol.

Series [4] concerns S. coelicolor M1146-tarM1Δtar14. Nature of the series: Feeding/chemical complementation experiment, incorporation into taromycin. The class given is cell-based, Streptomyces coelicolor. To be noted: incorporation at residue-1 and residue-13; analogue fed at 2 mM; judged by comparison to taromycin yields by S. coelicolor M1146-tarM1. Here is the method:
For taromycin production, seed culture in TSBY medium was inoculated with corresponding S. coelicolor spore suspension (collected from fresh SFM plates) and was cultured for 36-48 h till a dense creamy consistency was reached. Kanamycin at 10 μg mL^−1 final concentration was added to the seed cultures of S. coelicolor M1146-pCAP01-tarM1 and S. coelicolor M1146-pCAP01-tarM1Δtar14. Inocula of seed culture (5%, v/v) were used for fermentation in MP medium (1% glucose, 1% soluble starch, 0.4% peptone, 0.3% yeast extract, 0.3% soytone, 0.2% meat extract, 0.2% CaCO3, and 0.5% NaCl, pH 7.2). Fermentation was carried out at 30° C. and 220 rpm in a rotary incubator for 6 days. A maximum of 40 mL of production medium was added into 250 mL flask with metal springs.
S. coelicolor M1146-pCAP01-tarM1Δtar14 cultures were grown as described in Section 3 for taromycin production. After 18 and 36 h of cultivation, tryptophan analogues in the form of water suspension were added to the production cultures to a final concentration 2 mM. The cultures were further incubated for 5 days before extraction and further analysis by LC-HRMS^n. All experiments were repeated independently twice with three replicates for each compound. In parallel, cultures of S. coelicolor M1146-pCAP01-tarM1 and S. coelicolor M1146-pCAP01-tarM1Δtar14 were grown as controls.
To analyze production of taromycins and analogues, solid phase extraction of the culture supernatants was performed with Amberlite XAD-16 resin (SIGMA). For analytical purposes around 1 g of washed and equilibrated resin was added to 20 mL of supernatant followed by shaking for 30-60 min. Samples were then spun down and decanted. The resin was washed twice with water (15 mL), before elution with methanol (5 mL). The methanol extracts from the resin were used for LCMS analysis without additional concentration step.

For series [5], the system named is Tar13 Tar14 Tar16. In words: One-pot Tar13/Tar14/Tar16 conversion of L-Trp to L-4-Cl-Kyn. Format: biochemical, Saccharomonospora sp. CNQ-490. Here is the method: Buffer: up to 100 μL (50 mM Tris, 500 mM NaCl (or KBr) 10% glycerol, pH 8.0)
(§2) Tar14 (added last): 2.5 μM
Incubate 45 min at 30° C., followed by addition of premixed:
Buffer: up to 50 μL (50 mM Tris, 500 mM NaCl (or KBr) 10% glycerol, pH 8.0)
The reactions were incubated at 30° C. overnight, after which the assays were quenched by addition of equal volume of HPLC grade methanol and frozen at −70° C. till further analysis by LCMS.

The nature of series [6]: Deformylation of N-formyl-L-4-Cl-Kyn on purification/lyophilization. To be noted: mildly acidic purification conditions / after lyophilization. The class given is physicochemical. Here is the method:
N-formyl-L-4-Cl-kynurenine (10): The Tar13 biochemical assay was scaled to 57.6 mL (six 96 well plates with 100 μL reaction mixture as described in section 8 in each well). After overnight incubation, the assays were pooled together, frozen on dry ice, and lyophilized. The dried sample was redissolved in a 4000 μL of water/methanol (1/1) mixture and subjected to purification by preparative HPLC using method 8. Organic solvent from combined fractions (checked by direct injection into the Bruker Ion Trap mass spectrometer) was removed by evaporation at reduced pressure and the aqueous sample was frozen following by lyophilization. Due to the presence of closely eluting impurities, further purification step using semi-preparative HPLC and method 6 was used. The target peak was collected manually. After removing organic solvent under reduced pressure and lyophilization, the desired product 10 (1.8 mg) was obtained.

The test system of series [7] is Lechevalieria aerocolonigenes ATCC 39243 RebH (tryptophan halogenase), SEQ ID NO: 44. To be noted: cited from earlier work.
Series [8] deals with T1, Saccharomonospora sp. CNQ-490 Tar14 (flavin-dependent tryptophan halogenase), wild type, SEQ ID NO: 3 (expressed SEQ ID NO: 4); expressed with cleaved His tag SE (Saccharomonospora piscinae, UniProt W5VG40).
T1 construct: flavin reductase Tar15 and PtdH as helper enzymes
T1 sequence (W5VG40 1-534): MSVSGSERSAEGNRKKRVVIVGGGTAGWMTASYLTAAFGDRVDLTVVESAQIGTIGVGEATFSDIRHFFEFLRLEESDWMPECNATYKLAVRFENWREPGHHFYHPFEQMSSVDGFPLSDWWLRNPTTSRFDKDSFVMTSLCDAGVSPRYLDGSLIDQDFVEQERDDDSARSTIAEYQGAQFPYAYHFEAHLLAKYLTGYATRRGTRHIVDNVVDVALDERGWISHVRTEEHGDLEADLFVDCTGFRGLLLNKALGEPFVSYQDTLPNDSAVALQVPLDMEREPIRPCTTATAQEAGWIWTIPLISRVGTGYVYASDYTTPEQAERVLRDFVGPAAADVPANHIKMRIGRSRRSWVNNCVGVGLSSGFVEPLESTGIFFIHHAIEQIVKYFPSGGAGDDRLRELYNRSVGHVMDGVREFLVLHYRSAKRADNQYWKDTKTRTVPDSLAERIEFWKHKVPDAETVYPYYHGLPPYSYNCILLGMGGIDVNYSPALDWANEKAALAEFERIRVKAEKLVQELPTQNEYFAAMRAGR
Nature of the series: Kinetic characterization of Tar14-catalyzed chlorination of L-tryptophan. The class given is biochemical. To be noted: Tar14, L-Trp chlorination, 30° C., pH 7.6.
Description: (§3) To determine kinetic parameters for Tar14-catalyzed chlorination of L-tryptophan, phenol was first tested as an internal standard for quantification of the product (L-6-chlorotryptophan) formation. An HPLC method that gives separation of substrate/product/internal standard peaks (method 4) was developed (FIGS. 10A and 108). It was also verified that activity of Tar14 was not affected by the presence of phenol in the reaction mixture. Using commercial standard of L-6-chlorotryptophan and phenol mixed at known concentrations, a calibration curve was built (FIGS. 10A and 10B).
(§4) Tar14 reaction mixture of total volume 100 μL in 1.5 mL Eppendorf tube was composed of the following components:
(§5) Buffer (10 mM Tris, 10% glycerol, pH 7.6) up to 100 μL
as §2
(§6) The reactions were incubated at 30° C. for 5, 10, 25, 45, 60, 120, and 240 min, after which the assays were quenched by addition of equal volume of HPLC grade methanol and frozen at −70° C. till further analysis by HPLC. All assays were performed in triplicates for each substrate concentration and every time point. In parallel, for each time point and substrate concentration, assays with no added phenol and with no added enzyme were used as controls.
(§7) Product formation was quantitated by calculating the ratio of peak areas of product to internal standard and fitting that value to a calibration curve. […]

The subject of series [9] is Streptomyces violaceusniger SPC6 Th-Hal (C6 tryptophan halogenase), SEQ ID NO: 38. To be noted: cited from earlier work.
Series [10] deals with Pseudomonas fluorescens PrnA (tryptophan halogenase), SEQ ID NO: 43. The settings on record: cited from earlier work.
Series [11] concerns Streptomyces toxytricini NRRL 15443 SttH (tryptophan halogenase), SEQ ID NO: 39. The settings on record: cited from earlier work.
For series [12], the system named is Streptomyces rugosporus LL-42D005 PyrH (C5 tryptophan halogenase), SEQ ID NO: 36. The settings on record: cited from earlier work.
Series [13] deals with Kutzneria sp. 744 KtzR (tryptophan halogenase), SEQ ID NO: 40. To be noted: cited from earlier work.
Substrate in series [14]: N[C@@H](Cc1c[nH]c2ccccc12)C(=O)O
Nature of the series: Kinetic characterization of Tar14-catalyzed chlorination of L-tryptophan. Format: biochemical, Saccharomonospora sp. CNQ-490. The settings on record: other: Tar14, L-Trp chlorination, 30° C., pH 7.6.
Description: as §3, §4, §5, §2, §6, §7

Values joined by “and” are separate entries in the source; they are usually repeats but may differ in a detail not shown here. Identical values can stand only once. Like-named read-outs stand apart in the source and are kept apart here.

Usually Km stands for the concentration of substrate that gives half-maximal velocity. As a reminder, the kcat is the number of substrate molecules converted per active site and unit of time at saturation.

On to `N[C@@H](Cc1c[nH]c2ccccc12)C(=O)O` [Compound 4, L-tryptophan], for which the “Conversion/activity as substrate for Tar13” value in series [1] is recorded as “only trace activity”. Also, in series [1] (substrate 0.25 mM, Tar13 20 μM, overnight at 30° C.), the “Enzyme assays, % conversion, Tar13” value is recorded as 15%. The “Enzyme assays, % conversion, Tar14, Br^−” value in [2] (KBr 100 mM, substrate 0.25 mM, Tar14 5 μM, 30° C., 4 h) was 100%. Moreover, the “Enzyme assays, % conversion, Tar14, Cl^−” value in series [2] (NaCl 100 mM, substrate 0.25 mM, Tar14 5 μM, 30° C., 4 h) turned out to be 100%. Besides, the “Iodination by Tar14” value in series [2] (incubated with iodide) was “No iodinated tryptophan products were detected”. Further, the “Enzyme assays, % conversion, Tar16” value in [3] is on record as 100%. Besides, in series [4], the “Feeding, % incorporation, A1 + A13 domain” value was <5%. Moreover, the “Production of L-4-Cl-Kyn from L-Trp in one-pot reaction” value in series [5] is listed as “below 1%”.

For `N[C@@H](CC(=O)c1ccc(Cl)cc1NC=O)C(=O)O` [Compound 10, N-formyl-L-4-Cl-kynurenine], the “Stability: deformylation to L-4-Cl-Kyn (1)” value in series [6] is “partial deformylation”.

For `N[C@@H](Cc1c[nH]c2ccccc12)C(=O)O` [L-Trp, L-tryptophan], the Michaelis constant (Km) in series [7] was 28.7 ± 1.3 µM; in series [9] (30° C.), 12.2 ± 1.8 µM; in [9] (45° C.) it was 20.4 ± 1.3 µM; in series [10], 20.7 ± 0.1 µM; in series [11], 25.3 ± 3.2 µM; in series [12] it was 15.2 ± 4.2 µM. Further, in [13], the Michaelis constant (Km) is 34.1 ± 2.1 µM. Also, the kcat is 0.01 ± 0.0017 s⁻¹ in series [7]; 0.0067 s⁻¹ and 0.007 ± 0.00083 s⁻¹ in [8]; 0.0717 ± 0.0083 s⁻¹ in series [9] (30° C.); 0.085 ± 0.0067 s⁻¹ in [9] (45° C.); 0.0183 ± 0.0017 s⁻¹ in series [10]; 0.0283 ± 0.0017 s⁻¹ in [11]. Also, the catalytic constant (kcat) is 0.04 ± 0.0067 s⁻¹ in series [12] and 0.0067 ± 0.0017 s⁻¹ in series [13].

B1: Saccharomonospora sp. CNQ-490 Tar14 (flavin-dependent tryptophan halogenase), wild type, SEQ ID NO: 3 (expressed SEQ ID NO: 4; expressed with cleaved His tag … (protein)
chain: MSVSGSERSAEGNRKKRVVIVGGGTAGWMTASYLTAAFGDRVDLTVVESAQIGTIGVGEATFSDIRHFFEFLRLEESDWMPECNATYKLAVRFENWREPGHHFYHPFEQMSSVDGFPLSDWWLRNPTTSRFDKDSFVMTSLCDAGVSPRYLDGSLIDQDFVEQERDDDSARSTIAEYQGAQFPYAYHFEAHLLAKYLTGYATRRGTRHIVDNVVDVALDERGWISHVRTEEHGDLEADLFVDCTGFRGLLLNKALGEPFVSYQDTLPNDSAVALQVPLDMEREPIRPCTTATAQEAGWIWTIPLISRVGTGYVYASDYTTPEQAERVLRDFVGPAAADVPANHIKMRIGRSRRSWVNNCVGVGLSSGFVEPLESTGIFFIHHAIEQIVKYFPSGGAGDDRLRELYNRSVGHVMDGVREFLVLHYRSAKRADNQYWKDTKTRTVPDSLAERIEFWKHKVPDAETVYPYYHGLPPYSYNCILLGMGGIDVNYSPALDWANEKAALAEFERIRVKAEKLVQELPTQNEYFAAMRAGR
notes: flavin reductase Tar15 and PtdH as helper enzymes
As for B1, in series [14], the Michaelis constant (Km) turned out to be 12.0 ± 1.9 µM.
